Experiments:
HIV-1 (IIIB) = test: Antiviral assay in MT-4 cells; format: cell-based; settings: Human immunodeficiency virus 1, MT4, 120 h; HIV-1 IIIB in MT-4 cells, 5 days incubation, Cell Titer Glo; read-out: MT4 EC50
Protocol: Compounds were tested in a high-throughput 384-well assay format for their ability to inhibit the replication of HIV-1 (IIIB) in MT-4 cells. Compounds were serially diluted (1.3) in DMSO on 384-well polypropylene plates and further diluted 200-fold into complete RPMI media (10% FBS, 1% P/S) using the Biotek Micro Flow and Labcyte ECHO acoustic dispenser. Each plate contained up to 8 test compounds, with negative (No Drug Control) and 5 μM AZT positive controls. MT-4 cells were pre-infected with 10 μL of either RPMI (mock-infected) or a fresh 1:250 dilution of HIV-1 IIIB concentrated virus stock. Infected and uninfected MT-4 cells were further diluted in complete RPMI media and added to each plate using a Micro Flow dispenser. After 5 days incubation in a humidified and temperature controlled incubator (37° C.), Cell Titer Glo (Promega) was added to the assay plates and chemiluminescence read using an Envision plate-reader.

[1] = Cytotoxicity assay in MT-4 cells; format: cell-based; settings: human; uninfected MT-4 cells, 5 days incubation, Cell Titer Glo; read-out: MT4 CC50
Method in brief: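 Viability read by Cell Titer Glo luminescence after 5 days at 37 °C. MT-4 cells, not infected, in complete RPMI (10% FBS), received compound dilution series. Base cytotoxicity set with […] puromycin.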

EC50 (HIV-1 (IIIB)) [µM] | Compound | CC50 at 5 days [1] [µM]
0.000331 | CCCCCCC(=O)Oc1c2n(cc(C(=O)NCc3ccc(F)cc3F)c1=O)[C@@H]1CN(C2=O)[C@@H](C)CC[C@]12CC(OC)=NO2 [Example 38, (3′S,5S,7′R)-10′-((2,4-difluorobenzyl)carbamoyl)-3-methoxy-3′-methyl-1′,11′-dioxo-1′,4′,5′,11′-tetrahydro-3′H,4H,7′H-spiro[isoxazole-5,6′-[2,7]methanopyrido[1,2-a][1,4]diazonin]-12′-yl heptanoate] | 25.7
0.00075 | CCCCCCC(=O)Oc1c2n(cc(C(=O)NCc3ccc(F)cc3F)c1=O)[C@@H]1CN(C2=O)[C@@H](C)CC[C@]12CC(C)=NO2 [Example 39, (3′S,5S,7′R)-10′-((2,4-difluorobenzyl)carbamoyl)-3,3′-dimethyl-1′,11′-dioxo-1′,4′,5′,11′-tetrahydro-3′H,4H,7′H-spiro[isoxazole-5,6′-[2,7]methanopyrido[1,2-a][1,4]diazonin]-12′-yl heptanoate] | 23.7
0.000592 | CCCCCCCC(=O)Oc1c2n(cc(C(=O)NCc3ccc(F)cc3F)c1=O)[C@@H]1CN(C2=O)[C@@H](C)CC[C@]12CC(OC)=NO2 [Example 40, (3′S,5S,7′R)-10′-((2,4-difluorobenzyl)carbamoyl)-3-methoxy-3′-methyl-1′,11′-dioxo-1′,4′,5′,11′-tetrahydro-3′H,4H,7′H-spiro[isoxazole-5,6′-[2,7]methanopyrido[1,2-a][1,4]diazonin]-12′-yl octanoate] | 25.1
0.000319 | CCCCCCCC(=O)Oc1c2n(cc(C(=O)NCc3ccc(F)cc3F)c1=O)[C@@H]1CN(C2=O)[C@@H](C)CC[C@]12CC(C)=NO2 [Example 41, (3′S,5S,7′R)-10′-((2,4-difluorobenzyl)carbamoyl)-3,3′-dimethyl-1′,11′-dioxo-1′,4′,5′,11′-tetrahydro-3′H,4H,7′H-spiro[isoxazole-5,6′-[2,7]methanopyrido[1,2-a][1,4]diazonin]-12′-yl octanoate] | 11.5
0.00194 | CCCCCCCCC(=O)Oc1c2n(cc(C(=O)NCc3ccc(F)cc3F)c1=O)[C@@H]1CN(C2=O)[C@@H](C)CC[C@]12CC(OC)=NO2 [Example 42, (3′S,5S,7′R)-10′-((2,4-difluorobenzyl)carbamoyl)-3-methoxy-3′-methyl-1′,11′-dioxo-1′,4′,5′,11′-tetrahydro-3′H,4H,7′H-spiro[isoxazole-5,6′-[2,7]methanopyrido[1,2-a][1,4]diazonin]-12′-yl nonanoate] | 40.6
0.00197 | CCCCCCCCC(=O)Oc1c2n(cc(C(=O)NCc3ccc(F)cc3F)c1=O)[C@@H]1CN(C2=O)[C@@H](C)CC[C@]12CC(C)=NO2 [Example 43, (3′S,5S,7′R)-10′-((2,4-difluorobenzyl)carbamoyl)-3,3′-dimethyl-1′,11′-dioxo-1′,4′,5′,11′-tetrahydro-3′H,4H,7′H-spiro[isoxazole-5,6′-[2,7]methanopyrido[1,2-a][1,4]diazonin]-12′-yl nonanoate] | 21.1
0.000477 | CCCCCCCCCC(=O)Oc1c2n(cc(C(=O)NCc3ccc(F)cc3F)c1=O)[C@@H]1CN(C2=O)[C@@H](C)CC[C@]12CC(OC)=NO2 [Example 44, (3′S,5S,7′R)-10′-((2,4-difluorobenzyl)carbamoyl)-3-methoxy-3′-methyl-1′,11′-dioxo-1′,4′,5′,11′-tetrahydro-3′H,4H,7′H-spiro[isoxazole-5,6′-[2,7]methanopyrido[1,2-a][1,4]diazonin]-12′-yl decanoate] | 24.5
0.000373 | CCCCCCCCCC(=O)Oc1c2n(cc(C(=O)NCc3ccc(F)cc3F)c1=O)[C@@H]1CN(C2=O)[C@@H](C)CC[C@]12CC(C)=NO2 [Example 45, (3′S,5S,7′R)-10′-((2,4-difluorobenzyl)carbamoyl)-3,3′-dimethyl-1′,11′-dioxo-1′,4′,5′,11′-tetrahydro-3′H,4H,7′H-spiro[isoxazole-5,6′-[2,7]methanopyrido[1,2-a][1,4]diazonin]-12′-yl decanoate] | 22.2
0.00206 | CCCCCCCCCCCC(=O)Oc1c2n(cc(C(=O)NCc3ccc(F)cc3F)c1=O)[C@@H]1CN(C2=O)[C@@H](C)CC[C@]12CC(OC)=NO2 [Example 46, (3′S,5S,7′R)-10′-((2,4-difluorobenzyl)carbamoyl)-3-methoxy-3′-methyl-1′,11′-dioxo-1′,4′,5′,11′-tetrahydro-3′H,4H,7′H-spiro[isoxazole-5,6′-[2,7]methanopyrido[1,2-a][1,4]diazonin]-12′-yl dodecanoate] | 36.2
0.00201 | CCCCCCCCCCCC(=O)Oc1c2n(cc(C(=O)NCc3ccc(F)cc3F)c1=O)[C@@H]1CN(C2=O)[C@@H](C)CC[C@]12CC(C)=NO2 [Example 47, (3′S,5S,7′R)-10′-((2,4-difluorobenzyl)carbamoyl)-3,3′-dimethyl-1′,11′-dioxo-1′,4′,5′,11′-tetrahydro-3′H,4H,7′H-spiro[isoxazole-5,6′-[2,7]methanopyrido[1,2-a][1,4]diazonin]-12′-yl dodecanoate] | 22.6
0.000604 | COC1=NO[C@@]2(CC[C@H](C)N3C[C@H]2n2cc(C(=O)NCc4ccc(F)cc4F)c(=O)c(OC(=O)C4CCCC4)c2C3=O)C1 [Example 52, (3′S,5S,7′R)-10′-((2,4-difluorobenzyl)carbamoyl)-3-methoxy-3′-methyl-1′,11′-dioxo-1′,4′,5′,11′-tetrahydro-3′H,4H,7′H-spiro[isoxazole-5,6′-[2,7]methanopyrido[1,2-a][1,4]diazonin]-12′-yl cyclopentanecarboxylate] | 24.7
0.00144 | CC1=NO[C@@]2(CC[C@H](C)N3C[C@H]2n2cc(C(=O)NCc4ccc(F)cc4F)c(=O)c(OC(=O)C4CCCC4)c2C3=O)C1 [Example 53, (3′S,5S,7′R)-10′-((2,4-difluorobenzyl)carbamoyl)-3,3′-dimethyl-1′,11′-dioxo-1′,4′,5′,11′-tetrahydro-3′H,4H,7′H-spiro[isoxazole-5,6′-[2,7]methanopyrido[1,2-a][1,4]diazonin]-12′-yl cyclopentanecarboxylate] | 24.4
0.000504 | COC1=NO[C@@]2(CC[C@H](C)N3C[C@H]2n2cc(C(=O)NCc4ccc(F)cc4F)c(=O)c(OC(=O)CC(C)C)c2C3=O)C1 [Example 54, (3′S,5S,7′R)-10′-((2,4-difluorobenzyl)carbamoyl)-3-methoxy-3′-methyl-1′,11′-dioxo-1′,4′,5′,11′-tetrahydro-3′H,4H,7′H-spiro[isoxazole-5,6′-[2,7]methanopyrido[1,2-a][1,4]diazonin]-12′-yl 3-methylbutanoate] | 19.4
0.000313 | CC1=NO[C@@]2(CC[C@H](C)N3C[C@H]2n2cc(C(=O)NCc4ccc(F)cc4F)c(=O)c(OC(=O)CC(C)C)c2C3=O)C1 [Example 55, (3′S,5S,7′R)-10′-((2,4-difluorobenzyl)carbamoyl)-3,3′-dimethyl-1′,11′-dioxo-1′,4′,5′,11′-tetrahydro-3′H,4H,7′H-spiro[isoxazole-5,6′-[2,7]methanopyrido[1,2-a][1,4]diazonin]-12′-yl 3-methylbutanoate] | 16.4
0.00124 | COC1=NO[C@@]2(CC[C@H](C)N3C[C@H]2n2cc(C(=O)NCc4ccc(F)cc4F)c(=O)c(OC(=O)CCC(C)C)c2C3=O)C1 [Example 56, (3′S,5S,7′R)-10′-((2,4-difluorobenzyl)carbamoyl)-3-methoxy-3′-methyl-1′,11′-dioxo-1′,4′,5′,11′-tetrahydro-3′H,4H,7′H-spiro[isoxazole-5,6′-[2,7]methanopyrido[1,2-a][1,4]diazonin]-12′-yl 4-methylpentanoate] | 34.7
0.00154 | CC1=NO[C@@]2(CC[C@H](C)N3C[C@H]2n2cc(C(=O)NCc4ccc(F)cc4F)c(=O)c(OC(=O)CCC(C)C)c2C3=O)C1 [Example 57, (3′S,5S,7′R)-10′-((2,4-difluorobenzyl)carbamoyl)-3,3′-dimethyl-1′,11′-dioxo-1′,4′,5′,11′-tetrahydro-3′H,4H,7′H-spiro[isoxazole-5,6′-[2,7]methanopyrido[1,2-a][1,4]diazonin]-12′-yl 4-methylpentanoate] | 23.1
0.000284 | COC1=NO[C@@]2(CC[C@H](C)N3C[C@H]2n2cc(C(=O)NCc4ccc(F)cc4F)c(=O)c(OC(=O)CCC4CCCC4)c2C3=O)C1 [Example 58, (3′S,5S,7′R)-10′-((2,4-difluorobenzyl)carbamoyl)-3-methoxy-3′-methyl-1′,11′-dioxo-1′,4′,5′,11′-tetrahydro-3′H,4H,7′H-spiro[isoxazole-5,6′-[2,7]methanopyrido[1,2-a][1,4]diazonin]-12′-yl 3-cyclopentylpropanoate] | 23.9
0.000459 | CC1=NO[C@@]2(CC[C@H](C)N3C[C@H]2n2cc(C(=O)NCc4ccc(F)cc4F)c(=O)c(OC(=O)CCC4CCCC4)c2C3=O)C1 [Example 59, (3′S,5S,7′R)-10′-((2,4-difluorobenzyl)carbamoyl)-3,3′-dimethyl-1′,11′-dioxo-1′,4′,5′,11′-tetrahydro-3′H,4H,7′H-spiro[isoxazole-5,6′-[2,7]methanopyrido[1,2-a][1,4]diazonin]-12′-yl 3-cyclopentylpropanoate] | 15.4

From US20250122219A1 (priority 2023, published 2025)
